Source: PubChem BioAssay AID1963426 (Molecular Pharmacology Branch, DTP, NCI, 2024)

Tested on: 186277-243-T-J2-PDC complex spheroid growth, % test/control
Experiment: Anticancer human tumor 186277-243-T-J2-PDC patient-derived colon adenocarcinoma cell line growth inhibition [Asc]
Details: for IC50: curve of first compound; for viability, T/C: stronger effect = lower value
Outline: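 Tumor cells were grown as multicellular spheroids with stromal HUVEC and mesenchymal stem cells and treated singly or in combination. Concentrations fell in half-log steps from the clinical Cmax, or from 10 microM where none was known.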

[1] = second compound 0.1 µM, first compound 0.00316 µM
[2] = second compound 0.1 µM, first compound 0.01 µM
[3] = second compound 0.1 µM, first compound 0.0316 µM
[4] = second compound 0.1 µM, first compound 0.1 µM
[5] = second compound 0.1 µM, first compound 0.316 µM
[6] = second compound 0.1 µM, first compound 1 µM
[7] = second compound 0.316 µM, first compound 0.00316 µM
[8] = second compound 0.316 µM, first compound 0.01 µM
[9] = second compound 0.316 µM, first compound 0.0316 µM
[10] = second compound 0.316 µM, first compound 0.1 µM
[11] = second compound 0.316 µM, first compound 0.316 µM
[12] = second compound 0.316 µM, first compound 1 µM
[13] = second compound 1 µM, first compound 0.00316 µM
[14] = second compound 1 µM, first compound 0.01 µM
[15] = second compound 1 µM, first compound 0.0316 µM
[16] = second compound 1 µM, first compound 0.1 µM
[17] = second compound 1 µM, first compound 0.316 µM
[18] = second compound 1 µM, first compound 1 µM
[19] = second compound 3.16 µM, first compound 0.00316 µM
[20] = second compound 3.16 µM, first compound 0.01 µM
[21] = second compound 3.16 µM, first compound 0.0316 µM
[22] = second compound 3.16 µM, first compound 0.1 µM
[23] = second compound 3.16 µM, first compound 0.316 µM
[24] = second compound 3.16 µM, first compound 1 µM
[25] = second compound 10 µM, first compound 0.00316 µM
[26] = second compound 10 µM, first compound 0.01 µM
[27] = second compound 10 µM, first compound 0.0316 µM
[28] = second compound 10 µM, first compound 0.1 µM
[29] = second compound 10 µM, first compound 0.316 µM
[30] = second compound 10 µM, first compound 1 µM
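Note: spheroids exposed to agents for 7 days.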
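Throughout, for viability, T/C: 100% = DMSO vehicle control wells.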

`CCN1CCN(Cc2ccc(Nc3ncc(F)c(-c4cc(F)c5nc(C)n(C(C)C)c5c4)n3)nc2)CC1` + Cc1c(S(C)(=O)=O)c(-c2cc(F)cc(N3CCN(c4ccc(NS(=O)(=O)c5ccc(NC(CCN6CCC(C(=O)OCCCP(=O)(O)O)CC6)CSc6ccccc6)c(S(=O)(=O)C(F)(F)F)c5)cc4)CC3)c2)c(-c2ccc(Cl)cc2)n1C(C)C was tested, and the IC50 (second compound 0.1 µM) was greater than 1000 nM, the IC50 (second compound 0.316 µM) was greater than 1000 nM and the IC50 (second compound 1 µM) was greater than 1000 nM. The IC50 (second compound 3.16 µM) was 788 nM, the IC50 (second compound 10 µM) was 738 nM and the viability, T/C [1] was 107%. The viability, T/C [2] was 99.1%, the viability, T/C [3] was 103% and the viability, T/C [4] was 125%. For the same molecule, the viability, T/C [5] was 123%, the viability, T/C [6] was 75.3% and the viability, T/C [7] was 95.2%. The viability, T/C [8] was 94.1%, the viability, T/C [9] was 103% and the viability, T/C [10] was 115%. The viability, T/C [11] was 114%, the viability, T/C [12] was 67.7% and the viability, T/C [13] was 86.6%. It also gave a viability, T/C [14] of 99.6%, a viability, T/C [15] of 102% and a viability, T/C [16] of 120%. For the same molecule, the viability, T/C [17] was 101%, the viability, T/C [18] was 56.7% and the viability, T/C [19] was 96.4%. The viability, T/C [20] was 89.8%, the viability, T/C [21] was 101% and the viability, T/C [22] was 113%. It also gave a viability, T/C [23] of 89.8%, a viability, T/C [24] of 39.6% and a viability, T/C [25] of 91.3%. The viability, T/C [26] was 84.3%, the viability, T/C [27] was 100% and the viability, T/C [28] was 110%. For the same molecule, the viability, T/C [29] was 93.5% and the viability, T/C [30] was 34.2%.

Molecule `COc1c(OCCCN2CCOCC2)ccc2c3n(c(=NC(=O)c4cnc(N)nc4)nc12)CCN3` + Cc1c(S(C)(=O)=O)c(-c2cc(F)cc(N3CCN(c4ccc(NS(=O)(=O)c5ccc(NC(CCN6CCC(C(=O)OCCCP(=O)(O)O)CC6)CSc6ccccc6)c(S(=O)(=O)C(F)(F)F)c5)cc4)CC3)c2)c(-c2ccc(Cl)cc2)n1C(C)C has an IC50 (second compound 0.1 µM) of 43.4 nM, an IC50 (second compound 0.316 µM) of 40.2 nM and an IC50 (second compound 1 µM) of 33.8 nM. It also gave an IC50 (second compound 3.16 µM) of 27.2 nM, an IC50 (second compound 10 µM) of 31.8 nM and a viability, T/C [1] of 107%. The viability, T/C [2] was 101%, the viability, T/C [3] was 53.2% and the viability, T/C [4] was 31.5%. For the same molecule, the viability, T/C [5] was 12.4%, the viability, T/C [6] was 8.11% and the viability, T/C [7] was 98%. For the same molecule, the viability, T/C [8] was 98.1%, the viability, T/C [9] was 53.2% and the viability, T/C [10] was 24.9%. The viability, T/C [11] was 7.34%, the viability, T/C [12] was 4.21% and the viability, T/C [13] was 95.9%. For the same molecule, the viability, T/C [14] was 84.1%, the viability, T/C [15] was 50.3% and the viability, T/C [16] was 21.9%. For the same molecule, the viability, T/C [17] was 6.19%, the viability, T/C [18] was 2% and the viability, T/C [19] was 91.7%. It also gave a viability, T/C [20] of 99.2%, a viability, T/C [21] of 42.8% and a viability, T/C [22] of 15.7%. The viability, T/C [23] was 2.68%, the viability, T/C [24] was 1.29% and the viability, T/C [25] was 82.4%. It also gave a viability, T/C [26] of 83.9%, a viability, T/C [27] of 48% and a viability, T/C [28] of 15.5%. For the same molecule, the viability, T/C [29] was 4.11% and the viability, T/C [30] was 1.39%.

Molecule `NC(=O)C(=Cn1cnc(-c2cc(C(F)(F)F)cc(C(F)(F)F)c2)n1)c1cncnc1` + Cc1c(S(C)(=O)=O)c(-c2cc(F)cc(N3CCN(c4ccc(NS(=O)(=O)c5ccc(NC(CCN6CCC(C(=O)OCCCP(=O)(O)O)CC6)CSc6ccccc6)c(S(=O)(=O)C(F)(F)F)c5)cc4)CC3)c2)c(-c2ccc(Cl)cc2)n1C(C)C has an IC50 (second compound 0.1 µM) of 108 nM, an IC50 (second compound 0.316 µM) of 84.2 nM and an IC50 (second compound 1 µM) of 65.7 nM. For the same molecule, the IC50 (second compound 3.16 µM) was 56.8 nM, the IC50 (second compound 10 µM) was 55.4 nM and the viability, T/C (second compound 0.1 µM, first compound 0.000949 µM) was 109%. For the same molecule, the viability, T/C (second compound 0.1 µM, first compound 0.003 µM) was 99.3%, the viability, T/C (second compound 0.1 µM, first compound 0.00949 µM) was 113% and the viability, T/C (second compound 0.1 µM, first compound 0.03 µM) was 90.8%. It also gave a viability, T/C (second compound 0.1 µM, first compound 0.0949 µM) of 56.2%, a viability, T/C (second compound 0.1 µM, first compound 0.3 µM) of 6.16% and a viability, T/C (second compound 0.316 µM, first compound 0.000949 µM) of 96.3%. It also gave a viability, T/C (second compound 0.316 µM, first compound 0.003 µM) of 99%, a viability, T/C (second compound 0.316 µM, first compound 0.00949 µM) of 89.5% and a viability, T/C (second compound 0.316 µM, first compound 0.03 µM) of 94.9%. For the same molecule, the viability, T/C (second compound 0.316 µM, first compound 0.0949 µM) was 44.8%, the viability, T/C (second compound 0.316 µM, first compound 0.3 µM) was 4.07% and the viability, T/C (second compound 1 µM, first compound 0.000949 µM) was 96.8%. For the same molecule, the viability, T/C (second compound 1 µM, first compound 0.003 µM) was 101%, the viability, T/C (second compound 1 µM, first compound 0.00949 µM) was 101% and the viability, T/C (second compound 1 µM, first compound 0.03 µM) was 98.2%. The viability, T/C (second compound 1 µM, first compound 0.0949 µM) was 27.4%, the viability, T/C (second compound 1 µM, first compound 0.3 µM) was 1.75% and the viability, T/C (second compound 3.16 µM, first compound 0.000949 µM) was 110%. For the same molecule, the viability, T/C (second compound 3.16 µM, first compound 0.003 µM) was 99.4%, the viability, T/C (second compound 3.16 µM, first compound 0.00949 µM) was 101% and the viability, T/C (second compound 3.16 µM, first compound 0.03 µM) was 95.8%. The viability, T/C (second compound 3.16 µM, first compound 0.0949 µM) was 13.2%, the viability, T/C (second compound 3.16 µM, first compound 0.3 µM) was 0.68% and the viability, T/C (second compound 10 µM, first compound 0.000949 µM) was 92%. For the same molecule, the viability, T/C (second compound 10 µM, first compound 0.003 µM) was 92.4%, the viability, T/C (second compound 10 µM, first compound 0.00949 µM) was 92.5% and the viability, T/C (second compound 10 µM, first compound 0.03 µM) was 91.7%. The viability, T/C (second compound 10 µM, first compound 0.0949 µM) was 13.4% and the viability, T/C (second compound 10 µM, first compound 0.3 µM) was 0.55%.

`NC1CCC(NC2CC2c2ccccc2)CC1` (stereo not given) + Cc1c(S(C)(=O)=O)c(-c2cc(F)cc(N3CCN(c4ccc(NS(=O)(=O)c5ccc(NC(CCN6CCC(C(=O)OCCCP(=O)(O)O)CC6)CSc6ccccc6)c(S(=O)(=O)C(F)(F)F)c5)cc4)CC3)c2)c(-c2ccc(Cl)cc2)n1C(C)C gave an IC50 (second compound 0.1 µM) greater than 100 nM, an IC50 (second compound 0.316 µM) greater than 100 nM and an IC50 (second compound 1 µM) greater than 100 nM. For the same molecule, the IC50 (second compound 3.16 µM) was greater than 100 nM, the IC50 (second compound 10 µM) was greater than 100 nM and the viability, T/C (second compound 0.1 µM, first compound 0.000316 µM) was 102%. It also gave a viability, T/C (second compound 0.1 µM, first compound 0.001 µM) of 102%, a viability, T/C [1] of 96.9% and a viability, T/C [2] of 94.8%. For the same molecule, the viability, T/C [3] was 94.4%, the viability, T/C [4] was 91.3% and the viability, T/C (second compound 0.316 µM, first compound 0.000316 µM) was 124%. For the same molecule, the viability, T/C (second compound 0.316 µM, first compound 0.001 µM) was 94.3%, the viability, T/C [7] was 111% and the viability, T/C [8] was 104%. The viability, T/C [9] was 89.9%, the viability, T/C [10] was 78.1% and the viability, T/C (second compound 1 µM, first compound 0.000316 µM) was 99.8%. The viability, T/C (second compound 1 µM, first compound 0.001 µM) was 103%, the viability, T/C [13] was 113% and the viability, T/C [14] was 93%. It also gave a viability, T/C [15] of 96.7%, a viability, T/C [16] of 89% and a viability, T/C (second compound 3.16 µM, first compound 0.000316 µM) of 103%. It also gave a viability, T/C (second compound 3.16 µM, first compound 0.001 µM) of 104%, a viability, T/C [19] of 100% and a viability, T/C [20] of 92.1%. The viability, T/C [21] was 95.6%, the viability, T/C [22] was 91.3% and the viability, T/C (second compound 10 µM, first compound 0.000316 µM) was 98.3%. The viability, T/C (second compound 10 µM, first compound 0.001 µM) was 101%, the viability, T/C [25] was 97.8% and the viability, T/C [26] was 92.8%. It also gave a viability, T/C [27] of 97.8% and a viability, T/C [28] of 98%.
